Measured values as given in PMC3896228, “Physalin H from Solanum nigrum as an Hh signaling inhibitor blocks GLI1–DNA-complex formation” (Beilstein Journal of Organic Chemistry, 2014).
Where two headings read alike, the source gives them in different places.

Columns and labels:
[1] = test system: GLI1 transcriptional activity; settings: cited from earlier work
[2] = Cytotoxicity test against C3H10T1/2 normal cells; type: cell-based; settings: mouse, C3H10T1/2 cells (normal cell line)
Text: (§1) […]. […] […]. […] […].

C3H10T1/2 [3] = test: Cytotoxicity test against C3H10T1/2 normal cells; type: cell-based; settings: normal cell line
Text: as §1

PANC1 [4] = test: Cytotoxicity test against PANC1; type: cell-based; settings: Homo sapiens, PANC-1
Text: as §1

[5] = test system: GLI1 transcriptional activity; test: cells; type: cell-based; settings: for IC50: read-out: GLI1 transcriptional inhibition, IC50
Text: In addition, we evaluated the Hh inhibitory activity by assessing the cytotoxicity against cancer cells and the expression of Hh-related proteins.
(§2) We evaluated the Hh inhibitory activity of the isolated compounds by using a previously described method. […] In addition we always checked the cytotoxicity of the compounds against the assay cells, because a decrease in the number of living cells also correlates with a reduced luciferase activity. […] Further, we examined the cytotoxicity against cancer cells, human pancreatic (PANC1) and prostate (DU145) cancer cell lines, in which Hh signaling is aberrantly activated (Table 1).
(§3) The NMR measurements were carried out with JEOL ECP400 and ECP600 spectrometers in deuterated solvents and the residual proton chemical shift was taken as an internal standard. MS data were obtained with a JEOL JMS-T100LP (ESI). IR spectra were measured by using the ATR (attenuated total reflection) method on a Jasco FT-IR 230 spectrophotometer. […] The procedures for the GLI1-mediated transcriptional activity assay, Western blot analysis and cytotoxicity test were as previously described. The GST–GLI1 protein was produced as previously described.

[6] = test system: assay cells (HaCaT cells expressing exogenous GLI1); test: Cytotoxicity against reporter assay cells (cell viability)
Text: as §2, §3

DU145 = test: Cytotoxicity test against DU145; type: cell-based
Text: as §1

C3H10T1/2 [7] = settings: cited from earlier work; for survival of C3H10T1/2 cells: normal cell line; for IC50: read-out: Cytotoxicity, IC50 C3H10T1/2, C3H10T1/2
PANC1 [8] = settings: read-out: Cytotoxicity, IC50 PANC1; cited from earlier work
[9] = target: T1, GLI1–DNA complex (GST–GLI1 171-515aa, GLI1–BS) (Homo sapiens, UniProt P08151); type: binding; settings: EMSA, 200 μM
T1 construct: GST–GLI1 (171-515aa); made in house; host or cells: Escherichia coli
T1 sequence (P08151 171-515): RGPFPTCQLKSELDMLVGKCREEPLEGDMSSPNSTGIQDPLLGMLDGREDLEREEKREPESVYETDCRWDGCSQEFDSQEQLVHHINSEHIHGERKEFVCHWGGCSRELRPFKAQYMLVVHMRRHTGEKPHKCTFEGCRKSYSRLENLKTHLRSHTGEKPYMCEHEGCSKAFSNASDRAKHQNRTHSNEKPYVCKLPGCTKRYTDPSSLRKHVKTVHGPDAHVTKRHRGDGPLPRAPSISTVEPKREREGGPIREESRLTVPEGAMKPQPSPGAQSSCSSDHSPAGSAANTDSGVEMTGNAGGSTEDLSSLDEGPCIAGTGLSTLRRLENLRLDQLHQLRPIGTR

PTCH [10] = test: Western blot analysis of PTCH in GLI1-overexpressing HaCaT cells; type: cell-based; settings: 3.0 μM, HaCaT cells expressing exogenous GLI1, Western blot
Text: as §1
(§4) Figure 4 Inhibition of protein expression by compound 1. (A) Western blot analysis of PTCH, BCL-2 protein levels in GLI1-overexpressing HaCaT cells after treatment with 1. (B) Western blot analysis of PTCH, BCL-2 protein levels in DU145 cells after treatment with 1.

BCL2 [11] = test: Western blot analysis of BCL2 in GLI1-overexpressing HaCaT cells; type: cell-based; settings: 3.0 μM, HaCaT cells expressing exogenous GLI1, Western blot
Text: as §1, §4

BCL2 [12] = test: Western blot analysis of BCL2 in DU145 cells; type: cell-based, human; settings: 3.0 μM, DU145 cancer cells
Text: as §1, §4

PTCH [13] = test: Western blot analysis of PTCH in DU145 cells; type: cell-based, human; settings: 3.0 μM, DU145 cancer cells
Text: as §1, §4

[14] = Homo sapiens, DU-145; read-out: Cytotoxicity, IC50 DU145
[15] = read-out: GLI1 transcriptional inhibition, IC50

For `C=C(C)[C@@H]1CC[C@]2(C(=O)O)CC[C@]3(C)[C@H](CC[C@@H]4[C@@]5(C)[C@H](C=O)[C@@H](O)C(C)(C)[C@@H]5CC[C@]43C)[C@@H]12` [colubrinic acid, reference compound], the IC50 ([1]; read-out: Hh inhibition IC50) is listed as 38 µM.

In the case of `CC12C(=O)CC=CC1=CCC1C2CCC2(O)C(=O)OC3(C)C4CC5(C)C(COC16OC23C5C6=O)C(=O)O4` (centres unmarked) [isophysalin B (4), isophysalin B], the IC50 [2] is reported as > 12 µM, the “survival of C3H10T1/2 cells” value (C3H10T1/2 [3]) is reported as “not significantly affected” and the IC50 (PANC1 [4]) is reported as 12 µM. The IC50 [5] was 4.2 µM, the “cytotoxicity against assay cells” value [6] was “low cytotoxicity” and the IC50 (DU145; [14]) was > 12 µM.

For `C[C@]12C(=O)C=CCC1=CC[C@@H]1[C@@H]2CC[C@@]2(O)C(=O)O[C@@]3(C)[C@H]4C[C@]5(C)[C@@H](CO[C@@]16O[C@]23[C@H]5C6=O)C(=O)O4` [physalin B (6), physalin B], the “survival of C3H10T1/2 cells” value (C3H10T1/2 [7]) is given as “not significantly affected”, the IC50 (C3H10T1/2 [7]) is given as 17 µM and the IC50 [1, 15] is given as 0.62 µM. For the same compound, the IC50 (PANC1 [8]) was 5.3 µM.

In the case of `C=C1C(=O)OC2CC1(C)C1C(=O)C3(O)OC14C(O)(CCC1C3CC=C3CC=CC(=O)C31C)C(=O)OC24C` (centres unmarked) [physalin B (6], the IC50 [1, 15] is listed as 0.62 µM.

In the case of `C[C@@]12C[C@H]3OC(=O)[C@@H]1CO[C@]14O[C@]5([C@H]2C1=O)[C@@](O)(CC[C@H]1[C@H]4C[C@H]2O[C@]24CC=CC(=O)[C@]14C)C(=O)O[C@@]35C` [physalin F (5), physalin F], the “survival of C3H10T1/2 cells” value (C3H10T1/2 [7]) is listed as “not significantly affected”, the IC50 (C3H10T1/2 [7]) is listed as 15 µM and the IC50 [1, 15] is listed as 0.66 µM. For the same compound, the IC50 (PANC1 [8]) was 2.7 µM.

For `CC12CC3OC(=O)C1COC14OC5(C2C1=O)C(O)(CCC1C4CC2OC24CC=CC(=O)C14C)C(=O)OC35C` (centres unmarked) [physalin F (5], the IC50 [1, 15] is given as 0.66 µM.

For `C[C@]12C(=O)C=CC=C1[C@@H](O)C[C@@H]1[C@@H]2CC[C@@]2(O)C(=O)O[C@@]3(C)[C@H]4C[C@]5(C)[C@@H](CO[C@@]16O[C@]23[C@H]5C6=O)C(=O)O4` [physalin G (2), physalin G], the IC50 [5] was 47.1 µM, the “formation of GLI1–DNA complex” value [9] was “did not inhibit” and the IC50 (DU145; Homo sapiens, DU-145, read-out: Cytotoxicity, IC50 DU145) was > 12 µM.

Work on `CC12C(=O)C=CC=C1C(O)CC1C2CCC2(O)C(=O)OC3(C)C4CC5(C)C(COC16OC23C5C6=O)C(=O)O4` (centres unmarked) [physalin G (2] yielded an IC50 [5] of 47.1 µM.

For `CC12CC3OC(=O)C1COC14OC5(C2C1=O)C(O)(CCC1C4CC(O)C2(Cl)CC=CC(=O)C12C)C(=O)OC35C` (centres unmarked) [physalin H (1), physalin H], the IC50 [2] was > 6 µM, the “survival of C3H10T1/2 cells” value (C3H10T1/2 [3]) was “not significantly affected” and the “expression of PTCH” value (PTCH [10]) was “inhibited the expression”. For the same compound, the “expression of BCL2” value (BCL2 [11]) was “inhibited the expression”, the “expression of BCL2” value (BCL2 [12]) was “decreased the expression” and the “expression of PTCH” value (PTCH [13]) was “only slightly affected”. For the same compound, the IC50 (PANC1 [4]) was 5.7 µM and the IC50 (DU145; [14]) was 6.8 µM.

In the case of `CC12CC3OC(=O)C1COC14OC5(C2C1=O)C(O)(CCC1C4CC(O)C24C=CC(OO2)C(=O)C14C)C(=O)OC35C` (centres unmarked) [physalin K (3), physalin K], the Hh inhibition [5] is reported as “did not show Hh inhibition at all”.

In the case of `COC(=O)[C@]1(C)CCC[C@]2(C)c3cc4occc4c(C)c3C[C@@H](OC(C)=O)[C@@H]12` [taepeenin D, reference compound], the IC50 ([1]; read-out: Hh inhibition IC50) is given as 1.6 µM.

For `C=CC(C)(O)CC[C@@]1(C)C2=C([C@H](OC(C)=O)[C@H](OC(C)=O)[C@H]1C)C(C)(C)CCC2` (some centres unmarked) [vitetrifolin D, reference compound], the IC50 ([1]; read-out: Hh inhibition IC50) is given as 20.2 µM.
